Our source for the IC50 values is publication PMC7999448, “Antibacterial and COX-2 Inhibitory Tetrahydrobisbenzylisoquinoline Alkaloids from the Philippine Medicinal Plant Phaeanthus ophthalmicus” (Plants, 2021).

One experiment has as its target T1, ovine COX-1 (Ovis aries, UniProt P05979).
T1 construct: gene PTGS1
T1 sequence (P05979 25-600): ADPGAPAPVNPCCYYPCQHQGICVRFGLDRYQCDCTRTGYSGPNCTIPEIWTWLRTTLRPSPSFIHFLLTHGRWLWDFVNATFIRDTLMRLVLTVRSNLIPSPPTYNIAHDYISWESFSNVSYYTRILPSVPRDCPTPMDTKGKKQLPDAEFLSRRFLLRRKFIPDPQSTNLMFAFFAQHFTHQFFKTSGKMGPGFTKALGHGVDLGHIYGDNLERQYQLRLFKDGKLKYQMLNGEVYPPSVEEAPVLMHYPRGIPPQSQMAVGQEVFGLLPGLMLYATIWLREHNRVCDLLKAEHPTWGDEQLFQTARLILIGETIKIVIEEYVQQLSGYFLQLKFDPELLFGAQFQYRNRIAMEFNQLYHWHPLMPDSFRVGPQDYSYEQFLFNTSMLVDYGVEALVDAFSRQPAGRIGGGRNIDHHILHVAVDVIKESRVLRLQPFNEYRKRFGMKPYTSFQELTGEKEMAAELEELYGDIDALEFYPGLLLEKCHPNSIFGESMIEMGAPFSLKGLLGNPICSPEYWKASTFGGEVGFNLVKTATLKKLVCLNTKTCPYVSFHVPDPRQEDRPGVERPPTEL
In words: colorimetric peroxidase assay, TMPD oxidation at […] nm (Cayman kit). It counts as biochemical.

The next experiment has as its target T2, ovine COX-2 (Ovis aries, UniProt P79208).
T2 construct: gene PTGS2
T2 sequence (P79208 17-603): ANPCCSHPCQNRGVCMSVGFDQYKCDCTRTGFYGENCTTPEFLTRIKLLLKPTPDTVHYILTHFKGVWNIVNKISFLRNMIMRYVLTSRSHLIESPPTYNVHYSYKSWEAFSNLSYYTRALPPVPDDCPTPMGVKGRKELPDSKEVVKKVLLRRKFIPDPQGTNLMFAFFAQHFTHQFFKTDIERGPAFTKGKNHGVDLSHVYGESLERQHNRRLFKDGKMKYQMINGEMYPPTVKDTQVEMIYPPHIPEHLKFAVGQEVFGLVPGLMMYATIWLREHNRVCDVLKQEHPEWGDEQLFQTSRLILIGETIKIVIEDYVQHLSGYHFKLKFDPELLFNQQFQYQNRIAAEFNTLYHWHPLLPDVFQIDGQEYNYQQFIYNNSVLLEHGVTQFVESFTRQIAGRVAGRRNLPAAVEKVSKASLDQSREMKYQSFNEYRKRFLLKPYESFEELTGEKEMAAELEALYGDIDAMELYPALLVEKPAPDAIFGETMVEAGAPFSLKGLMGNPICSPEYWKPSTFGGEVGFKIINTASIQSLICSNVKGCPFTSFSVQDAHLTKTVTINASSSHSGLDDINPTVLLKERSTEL
Described as above. Type of experiment: biochemical. As to conditions: read-out: IC50 (μM) vs. COX / COX-1.

With `COc1ccc2cc1Oc1ccc(cc1)C[C@H]1c3cc(c(OC)cc3CCN1C)Oc1c(OC)c(OC)cc3c1[C@H](C2)N(C)CC3` [compound 1, (+)-tetrandrine], the IC50 at ovine COX-1 and on ovine COX-2 was greater than 100 µM each time.
